Test results as given in patent US20250145631A1, “HETEROCYCLIC COMPOUND ACTING ON G12D MUTANT KRAS PROTEIN” (Astellas Pharma Inc., priority 2022, published 2025).

Assays:
[1] = tested on: human G12D mutant KRAS-positive pancreatic cancer line AsPC-1; experiment: Non-anchorage-dependent cell growth inhibitory effect, spheroid 3D culture (Test Example 3); type: cell-based; settings: ASPC1, 144 h, AsPC-1 spheroid 3D culture, 6 days, CellTiter Glo 2.0, read-out: IC50 (non-anchorage-dependent cell growth inhibition)
Method in brief: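 AsPC-1 cells grown as spheroids in RPMI 1640 with 10% FBS at 37° C, 5% CO2, then exposed to compounds (10 μM to 0.3 nM final) for 6 days. Viability read by CellTiter Glo 2.0 luminescence. IC50 from Sigmoid-Emax regression with DMSO as 100% and cell-free medium as 0%.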

KRAS G12D = molecular target: T1, KRAS G12D (Homo sapiens, UniProt P01116, G12D); experiment: KRAS degradation activity by Cell ELISA in AsPC-1 cells (Test Example 1); type: cell-based; settings: Cell ELISA; for Dmax: ASPC1, overnight treatment, read-out: Dmax (degradation rate at the concentration showing highest degradation); for DC50: overnight treatment, read-out: DC50 (50% degradation concentration of KRAS)
T1 construct: host or cells: AsPC-1 (human pancreatic cancer line)
T1 sequence (P01116 1-188 isoform P01116-2 G12D): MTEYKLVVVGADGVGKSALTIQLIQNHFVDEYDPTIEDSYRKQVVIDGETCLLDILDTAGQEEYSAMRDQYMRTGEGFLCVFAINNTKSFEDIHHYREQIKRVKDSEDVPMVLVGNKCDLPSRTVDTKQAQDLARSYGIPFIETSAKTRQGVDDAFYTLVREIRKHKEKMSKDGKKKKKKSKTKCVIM
Method in brief: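 AsPC-1 cells (2.0×10^4/well) treated overnight with compounds at 10 μM–0.3 nM (10 points), then fixed, permeabilised and stained for KRAS G12D (800 nm) and β-actin (700 nm) by in-cell ELISA. KRAS signal normalised to β-actin, DMSO set as 0% and actin-only staining as 100%; DC50 from Sigmoid-Emax regression up to Dmax.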

## CO[C@@H](C)COc1cc(O[C@H]2CCNC2)c2cc(C3CC3)c(-c3c(C)c(F)cc4[nH]ncc34)c(OCc3ccc(C(=O)N4CCN(Cc5ccc6c(c5)n(C)c(=O)n6C5CCC(=O)NC5=O)C[C@@H]4C)cc3)c2n1 (stereo partly drawn) [Example 12, 3-[5-({(3S)-4-[4-({[6-cyclopropyl-7-(6-fluoro-5-methyl-1H-indazol-4-yl)-2-[(2S)-2-methoxypropoxy]-4-{[(3S)-pyrrolidin-3-yl]oxy}quinolin-8-yl]oxy}methyl)benzoyl]-3-methylpiperazin-1-yl}methyl)-3-methyl-2-oxo-2,3-dihydro-1H-benzimidazol-1-yl]piperidine-2,6-dione]
[1]
  IC50: 41 nM
KRAS G12D
  Dmax: 82%
  DC50: 18 nM

## Cc1c(F)cc2[nH]ncc2c1-c1c(C2CC2)cc2c(N3C[C@@H]4C[C@H]3CN4)nc(OC3CCOCC3)nc2c1OCc1ccc(C(=O)N2CCN(Cc3ccc4c(c3)n(C)c(=O)n4C3CCC(=O)NC3=O)C[C@@H]2C)cc1 (stereo partly drawn) [Example 8, 3-(5-{[(3S)-4-{4-[({(7M)-6-cyclopropyl-4-[(1S,4S)-2,5-diazabicyclo[2.2.1]heptan-2-yl]-7-(6-fluoro-5-methyl-1H-indazol-4-yl)-2-[(oxan-4-yl)oxy]quinazolin-8-yl}oxy)methyl]benzoyl}-3-methylpiperazin-1-yl]methyl}-3-methyl-2-oxo-2,3-dihydro-TH-benzimidazol-1-yl)piperidine-2,6-dione]
[1]
  IC50: 27 nM
KRAS G12D
  Dmax: 86%
  DC50: 13 nM

## CO[C@@H](C)COc1cc(N2C[C@@H]3C[C@H]2CN3)c2cc(C3CC3)c(-c3c(C)c(F)cc4[nH]ncc34)c(OCc3ccc(C(=O)N4CCN(Cc5ccc6c(c5)n(C)c(=O)n6C5CCC(=O)NC5=O)C[C@@H]4C)cc3)c2n1 (stereo partly drawn) [Example 29, 3-(5-{[(3S)-4-{4-[({6-cyclopropyl-4-[(1S,4S)-2,5-diazabicyclo[2.2.1]heptan-2-yl]-7-(6-fluoro-5-methyl-1H-indazol-4-yl)-2-[(2S)-2-methoxypropoxy]quinolin-8-yl}oxy)methyl]benzoyl}-3-methylpiperazin-1-yl]methyl}-3-methyl-2-oxo-2,3-dihydro-1H-benzimidazol-1-yl)piperidine-2,6-dione]
[1]
  IC50: 33 nM
KRAS G12D
  Dmax: 86%
  DC50: 22 nM

## CO[C@@H](C)COc1nc(N2C[C@@H]3C[C@H]2CN3)c2cc(C3CC3)c(-c3c(C)c(F)cc4[nH]ncc34)c(OCc3ccc(C(=O)N4CCN(Cc5ccc6c(c5)n(C)c(=O)n6C5CCC(=O)NC5=O)C[C@@H]4C)cc3)c2n1 (stereo partly drawn) [Example 10, 3-(5-{[(3S)-4-{4-[({(7M)-6-cyclopropyl-4-[(1S,4S)-2,5-diazabicyclo[2.2.1]heptan-2-yl]-7-(6-fluoro-5-methyl-1H-indazol-4-yl)-2-[(2S)-2-methoxypropoxy]quinazolin-8-yl}oxy)methyl]benzoyl}-3-methylpiperazin-1-yl]methyl}-3-methyl-2-oxo-2,3-dihydro-1H-benzimidazol-1-yl)piperidine-2,6-dione]
[1]
  IC50: 15 nM
KRAS G12D
  Dmax: 86%
  DC50: 8 nM
